{
  "source": "patent US4244869A",
  "about": "“Benzodiazepine derivatives and process of making them” (Kali-Chemie A.G., priority 1972, dated 1981)",
  "key": {"[1]": {"assay": "Acute seven-day toxicity (LD50), single oral application", "set-up": "species or system mice (white NMRI)", "conditions": "mouse, in vivo, p.o., mice", "method": "The acute seven-day toxicity is determined by a single application per os and intraperitoneally to white fasting NMRI mice. The computation of the LD50 values was effected via EDV by a probit analysis (Cavalli-Sforza, publisher Gustav Fischer, 1964, Grundbegriffe der Biometrie)."}, "mice [2]": {"tested_on": "mice", "assay": "Pentetrazol induced convulsions (anticonvulsive)", "assay_type": "in vivo", "conditions": "Mus musculus, po, 1 h, p.o., 60 min before pentetrazol 100 mg/kg s.c., read-out: Pentetrazol spasm ED50", "method": "(§1) (2) Anti-convulsive properties\n(a) Pentetrazol induced convulsions\nThe compounds were tested after per oral administration to groups of six mice each. Sixty minutes after application of the test compounds pentetrazol was injected subcutaneously at a dosage of 100 mg/kg. The appearance of clonic and tonic convulsions was checked through a total observation time of 45 minutes. The protective effects of the compounds against convulsions were determined in control tests with comparison compounds. The effective dose ED50 was computed from the probit logarithmic dosage curves (modified according to J. E. Blum et al. Arzneimittel-Forsch. 23, 377 [1973]).\n(§2) The results obtained by these tests show the anticonvulsive activity of the test substances. According to the medical literature this is an important criteria for the appraising of the clinical effectiveness of tranquilizers."}, "mice [3]": {"tested_on": "mice", "assay": "Maximum electroshock (anticonvulsive)", "assay_type": "in vivo", "conditions": "Mus musculus, po, 1 h, orally, 60 min before electroshock", "method": "as §1\nThe test substances were applied orally to the animals. Sixty minutes after application electrodes were fastened to the ears of the mice and an electric shock was effected. The dose was then determined at which in half of the animals tonic contractions in the rear extremities were prevented. The computation of the ED50 was again effected by means of the above-noted probit analysis (modified according to J. Swinyard, J. Pharmacol. exptl. Therap.-106, 93 [1952]).\nas §2"}, "mice [4]": {"tested_on": "mice", "assay": "Isolation aggressiveness (anxiety relieving and anti-aggressive activity)", "assay_type": "in vivo", "conditions": "Mus musculus, po, 0.5 h; orally, after 30 minutes, isolated mice", "method": "(3) Anxiety relieving and anti-aggressive activity. Inhibition of the aggressiveness of a mouse caused by isolation.\nBefore the test the mice were kept for four weeks in strict isolation in single cages. After that time the mice which had been kept in isolation spontaneously attacked other mice which were introduced then and which had not been isolated. The test substances were administered to the isolated mice orally.\nThe results shown in these tests permit useful conclusions regarding the anxiety, stress and tension-relieving properties of the compound."}, "mice [5]": {"tested_on": "mice", "assay": "Test de la traction (musculotropic properties)", "assay_type": "in vivo", "conditions": "for Quotient 2: ED50 test de la traction / ED50 isolation aggressiveness; for ED50: Mus musculus, po, 2 h, p.o., after 120 minutes, mice", "method": "(4) Musculotropic properties\nThis test is called the \"test de la traction\". In this test the compounds were administered to the mice per os. After 120 minutes the mice were suspended with their front paws from a thin horizontally extending wire. […] These tests have the purpose to check the effects on the muscle tone by the compounds.\nThe ED50 values was effected via EDV by a probit analysis."}, "mice [6]": {"tested_on": "mice", "assay": "Prolongation of hexobarbital induced sleep (C.N.S. quieting properties)", "assay_type": "in vivo", "conditions": "for Quotient 1: ED50 elongation of hexobarbital induced sleep / ED50 isolation aggressiveness; for ED50: Mus musculus, po, 0.5 h, p.o., 30 min before hexobarbital 64 mg/kg i.v., prolongation by a factor of 4 in half of the mice", "method": "(5) C.N.S. quieting properties\n(Prolongation of hexobarbital induced sleep)\nThe test substance was applied to the mice per os. The animals after 30 minutes received additionally an intravenous injection of 64 mg/kg of hexobarbital. […] The duration of this lateral position was then compared with the control group which had been treated only with hexobarbital.\nAs ED50 that dose was defined at which with one-half of the animals a prolongation of the lateral position occurred by a factor of 4 as against the control group (G. M. Everett, Nature 177, 1238 [1956])."}},
  "data": [
    {"smiles": "COCC1CN=C(c2ccccc2Cl)c2cc(Br)ccc2N1C", "note": "(stereo not drawn) [Compound 1, 7-bromo-1-methyl-2-methoxymethyl-5-(2'-chlorophenyl)-1H-2,3-dihydro-1,4-benzodiazepin]", "values": [
      {"measurement": "LD50 at 168 h", "setting": "[1]", "result": 1580, "unit": "mg/kg"},
      {"measurement": "ED50", "setting": "mice [2]", "result": 0.9, "unit": "mg/kg"},
      {"measurement": "ED50", "setting": "mice [3]", "result": 3, "unit": "mg/kg"},
      {"measurement": "ED50", "setting": "mice [4]", "result": 3.1, "unit": "mg/kg"},
      {"measurement": "Quotient 2", "setting": "mice [5]", "result": 28.1},
      {"measurement": "ED50", "setting": "mice [5]", "result": 87, "unit": "mg/kg"},
      {"measurement": "Quotient 1", "setting": "mice [6]", "result": 4.9},
      {"measurement": "ED50", "setting": "mice [6]", "result": 15.2, "unit": "mg/kg"}
    ]},
    {"smiles": "CCOCC1CN=C(c2ccccc2Cl)c2cc(Br)ccc2N1C", "note": "(stereo not drawn) [Compound 2, 7-bromo-1-methyl-2-ethoxymethyl-5-(2'-chlorophenyl)-1H-2,3-dihydro-1,4-benzodiazepin]", "values": [
      {"measurement": "LD50 at 168 h", "setting": "[1]", "result": "> 1470", "unit": "mg/kg"},
      {"measurement": "ED50", "setting": "mice [2]", "result": 2.2, "unit": "mg/kg"},
      {"measurement": "ED50", "setting": "mice [3]", "result": 24.5, "unit": "mg/kg"},
      {"measurement": "ED50", "setting": "mice [4]", "result": 4.1, "unit": "mg/kg"},
      {"measurement": "Quotient 2", "setting": "mice [5]", "result": 8.5},
      {"measurement": "ED50", "setting": "mice [5]", "result": 34.9, "unit": "mg/kg"},
      {"measurement": "Quotient 1", "setting": "mice [6]", "result": 10.2},
      {"measurement": "ED50", "setting": "mice [6]", "result": 41.9, "unit": "mg/kg"}
    ]},
    {"smiles": "COCC1CN=C(c2ccccc2F)c2cc(Br)ccc2N1C", "note": "(stereo not drawn) [Compound 3, 7-bromo-1-methyl-2-methoxymethyl-5-(2'-fluorophenyl)-1H-2,3-dihydro-1,4-benzodiazepin]", "values": [
      {"measurement": "LD50 at 168 h", "setting": "[1]", "result": 1580, "unit": "mg/kg"},
      {"measurement": "ED50", "setting": "mice [2]", "result": 0.5, "unit": "mg/kg"},
      {"measurement": "ED50", "setting": "mice [3]", "result": 5, "unit": "mg/kg"},
      {"measurement": "ED50", "setting": "mice [4]", "result": 10.7, "unit": "mg/kg"},
      {"measurement": "Quotient 2", "setting": "mice [5]", "result": 5.4},
      {"measurement": "ED50", "setting": "mice [5]", "result": 58.3, "unit": "mg/kg"},
      {"measurement": "Quotient 1", "setting": "mice [6]", "result": 0.9},
      {"measurement": "ED50", "setting": "mice [6]", "result": 10.6, "unit": "mg/kg"}
    ]},
    {"smiles": "COCC1CN=C(c2ccccc2Cl)c2cc(Cl)ccc2N1C", "note": "(stereo not drawn) [Standard I, 7-chloro-1-methyl-2-methoxymethyl-5-(2'-chlorophenyl)-1H-2,3-dihydro-1,4-benzodiazepin, reference compound]", "values": [
      {"measurement": "LD50 at 168 h", "setting": "[1]", "result": 1780, "unit": "mg/kg"},
      {"measurement": "ED50", "setting": "mice [2]", "result": 2, "unit": "mg/kg"},
      {"measurement": "ED50", "setting": "mice [3]", "result": 26, "unit": "mg/kg"},
      {"measurement": "ED50", "setting": "mice [4]", "result": 68, "unit": "mg/kg"},
      {"measurement": "Quotient 2", "setting": "mice [5]", "result": 2.4},
      {"measurement": "ED50", "setting": "mice [5]", "result": 163, "unit": "mg/kg"},
      {"measurement": "Quotient 1", "setting": "mice [6]", "result": 0.17},
      {"measurement": "ED50", "setting": "mice [6]", "result": 11.7, "unit": "mg/kg"}
    ]},
    {"smiles": "CN1C(=O)CN=C(c2ccccc2)c2cc(Cl)ccc21", "note": "[Standard II, 7-chloro-1-methyl-5-phenyl-1,3-dihydro-2H-1,4-benzodiazepin-2-one, reference compound]", "values": [
      {"measurement": "ED50", "setting": "mice [2]", "result": 0.5, "unit": "mg/kg"},
      {"measurement": "ED50", "setting": "mice [3]", "result": 9, "unit": "mg/kg"},
      {"measurement": "ED50", "setting": "mice [4]", "result": 3.6, "unit": "mg/kg"},
      {"measurement": "Quotient 2", "setting": "mice [5]", "result": 1.2},
      {"measurement": "ED50", "setting": "mice [5]", "result": 4.2, "unit": "mg/kg"},
      {"measurement": "Quotient 1", "setting": "mice [6]", "result": 0.42},
      {"measurement": "ED50", "setting": "mice [6]", "result": 1.5, "unit": "mg/kg"}
    ]}
  ]
}
